The values below come from patent US6706740B2, “Fungicidal heterocyclic aromatic amides and their compositions, methods of use and preparation” (Dow AgroSciences LLC, priority 1999, dated 2004).

Assay [1] has as its system Magnaporthe grisea (Pyricularia oryzae—PYRIOR). Put plainly: microbe, parasite or virus in culture. The format is cell-based. To be noted: Pyricularia oryzae, read-out: PYRIOR in vitro Growth Inhibition.
The test system of assay [2] is Rhizoctonia solani (RHIZSO). As to the kind of experiment: microbe, parasite or virus in culture. The format is cell-based. To be noted: Rhizoctonia solani, read-out: RHIZSO in vitro Growth Inhibition.
Assay [3] has as its system Mycosphaerella graminicola (Septoria tritici—SEPTTR). Put plainly: In vitro fungal growth inhibition, Mycosphaerella graminicola (SEPTTR). The format is cell-based. To be noted: Zymoseptoria tritici; 25 ppm in growth medium; read-out: SEPTTR in vitro Growth Inhibition.
Assay [4] deals with Stagonospora nodorum (Leptosphaeria nodorum—LEPTNO). Put plainly: In vitro fungal growth inhibition, Stagonospora nodorum (LEPTNO). The format is cell-based. Conditions: Leptosphaeria; 25 ppm in growth medium; read-out: LEPTNO in vitro Growth Inhibition.
The next assay has as its system Ustilago maydis (USTIMA). As to the kind of experiment: microbe, parasite or virus in culture. The format is cell-based. To be noted: Mycosarcoma maydis, read-out: USTIMA in vitro Growth Inhibition.
For assay [5], the system named is Phytophthora infestans (PHYTIN). As to the kind of experiment: microbe, parasite or virus in culture. The format is cell-based. To be noted: Phytophthora infestans, read-out: PHYTIN in vitro Growth Inhibition.
In assay [6] the test system is Phytophthora infestans—PHYTIN. Put plainly: whole plant or invertebrate. The format is in vivo. To be noted: Phytophthora, in Solanum lycopersicum, 24 h, read-out: PHYTIN in vivo 1 Day Protectant.
In assay [7] the test system is Puccinia recondita—PUCCRT. As to the kind of experiment: Brown Rust of Wheat, in vivo whole plant, 24 Hour Protectant. To be noted: Puccinia; 100 ppm spray, wheat, 24 hour protectant; control of fungal infection vs untreated plants; read-out: PUCCRT in vivo 1 Day Protectant.
The next assay concerns Erysiphe graminis—ERYSGT. As to the kind of experiment: Powdery Mildew of Wheat, in vivo whole plant, 24 Hour Protectant. Conditions: Erysiphe; 100 ppm spray, wheat, 24 hour protectant; control of fungal infection vs untreated plants; read-out: ERYSGT in vivo 1 Day Protectant.
A further assay relates to Septoria tritici—SEPTTR. As to the kind of experiment: Leaf Blotch of Wheat, in vivo whole plant, 24 Hour Protectant. To be noted: Zymoseptoria tritici, 24 h, 100 ppm spray, wheat, 24 hour protectant; control of fungal infection vs untreated plants; read-out: SEPTTR in vivo 1 Day Protectant.
The test system of assay [8] is Leptosphaeria nodorum—LEPTNO. Put plainly: Glume Blotch of Wheat, in vivo whole plant, 24 Hour Protectant. Conditions: 100 ppm spray, wheat, 24 hour protectant, control of fungal infection vs untreated plants; for pest or weed control at 100 ppm: Leptosphaeria, read-out: LEPTNO in vivo 1 Day Protectant.

A word on the inhibition: it is how much of the control response was suppressed. As to `COc1ccnc(C(=O)Nc2ccc(C(=O)c3cccc(C(F)(F)F)c3)cc2)c1O` [Compound 405], the inhibition at 25 ppm in assay [1] was less than 80%; in assay [2], less than 80%; in assay [3], less than 80%; in assay [4], more than 80%; in the assay with Ustilago maydis (USTIMA), less than 80%; in [5] it was less than 80%. Besides, the pest or weed control at 100 ppm in assay [6] was less than 25%; in assay [7], less than 25%; with Erysiphe graminis—ERYSGT, less than 25%; in the assay on Septoria tritici—SEPTTR it was less than 25%; in [8], 25 to 74%.

Consider `COc1ccnc(C(=O)Nc2ccc(C(=O)c3ccc(C(F)(F)F)cc3)cc2)c1O` [Compound 406], for which the inhibition at 25 ppm (in assay [1]; in assay [2]; in assay [3]; in assay [4]; with Ustilago maydis (USTIMA); in assay [5]) was less than 80% throughout. The pest or weed control at 100 ppm is less than 25% in assay [6]; less than 25% in assay [7]; 25 to 74% with Erysiphe graminis—ERYSGT; 25 to 74% in the assay on Septoria tritici—SEPTTR; 25 to 74% in [8].

In the case of `COc1ccnc(C(=O)Nc2ccc(/C(=N/O)c3cccc(C(F)(F)F)c3)cc2)c1O` [Compound 407], the inhibition at 25 ppm is less than 80% in [1]; less than 80% in [2]; more than 80% in assay [3]; less than 80% in [4]; less than 80% with Ustilago maydis (USTIMA); less than 80% in assay [5]. The pest or weed control at 100 ppm was less than 25% in assay [6]; less than 25% in assay [7]; less than 25% in the assay on Erysiphe graminis—ERYSGT; 25 to 74% in the assay on Septoria tritici—SEPTTR; 25 to 74% in assay [8].

For the compound `CO/N=C(/c1ccc(NC(=O)c2nccc(OC)c2O)cc1)c1cccc(C(F)(F)F)c1` [Compound 408], the inhibition at 25 ppm in assay [1] was less than 80%; in assay [2] it was less than 80%; in assay [3], less than 80%; in assay [4], more than 80%; with Ustilago maydis (USTIMA), less than 80%; in assay [5], less than 80%. Also, the pest or weed control at 100 ppm in [6] was less than 25%; in [7] it was less than 25%; with Erysiphe graminis—ERYSGT it was 25 to 74%; with Septoria tritici—SEPTTR, 25 to 74%; in assay [8], 25 to 74%.

Turning to `CO/N=C(/c1ccc(NC(=O)c2nccc(OC)c2O)cc1)c1ccc(C(F)(F)F)cc1` [Compound 409], the inhibition at 25 ppm was more than 80% in [1]; less than 80% in assay [2]; more than 80% in [3]; more than 80% in assay [4]; less than 80% in the assay with Ustilago maydis (USTIMA); more than 80% in assay [5]. Besides, the pest or weed control at 100 ppm (in assay [6]; in assay [7]; with Erysiphe graminis—ERYSGT; with Septoria tritici—SEPTTR) was 25 to 74% in each case. For the same compound, the “LEPTNO in vivo 1 Day Protectant” value in assay [8] is “+ +”.

In the case of `COc1ccnc(C(=O)Nc2ccccc2Oc2ccc(C)cc2)c1O` [Compound 411], the inhibition at 25 ppm was less than 80% in assay [1]; less than 80% in assay [2]; more than 80% in [3]; more than 80% in [4]; less than 80% in the assay with Ustilago maydis (USTIMA); less than 80% in [5]. In addition, the pest or weed control at 100 ppm (in [6]; in assay [7]; in the assay on Erysiphe graminis—ERYSGT; in the assay with Septoria tritici—SEPTTR; in [8]) was less than 25% each time.

Take `COc1ccnc(C(=O)Nc2cccc(Oc3ccccc3C)c2)c1O` [Compound 412]: the inhibition at 25 ppm is more than 80% in [1]; less than 80% in assay [2]; more than 80% in assay [3]; more than 80% in assay [4]; less than 80% in the assay on Ustilago maydis (USTIMA); less than 80% in assay [5]. In addition, the pest or weed control at 100 ppm in assay [6] was less than 25%; in [7] it was 25 to 74%; in the assay with Erysiphe graminis—ERYSGT, less than 25%; with Septoria tritici—SEPTTR it was less than 25%; in [8], less than 25%.

Take `COc1ccnc(C(=O)Nc2cccc(Oc3cccc(C)c3)c2)c1O` [Compound 413]: the inhibition at 25 ppm in assay [1] is more than 80%; in [2] it was less than 80%; in [3], more than 80%; in assay [4], more than 80%; in the assay on Ustilago maydis (USTIMA), less than 80%; in assay [5], less than 80%. Further, the pest or weed control at 100 ppm was 25 to 74% in assay [6]; 25 to 74% in assay [7]; less than 25% in the assay on Erysiphe graminis—ERYSGT; less than 25% in the assay with Septoria tritici—SEPTTR; less than 25% in [8].

For `COc1ccnc(C(=O)Nc2cccc(Oc3ccc(C)cc3)c2)c1O` [Compound 414], the inhibition at 25 ppm was more than 80% in assay [1]; less than 80% in assay [2]; more than 80% in assay [3]; more than 80% in assay [4]; less than 80% with Ustilago maydis (USTIMA); less than 80% in [5]. For the same compound, the pest or weed control at 100 ppm is 25 to 74% in [6]; 25 to 74% in assay [7]; less than 25% with Erysiphe graminis—ERYSGT; less than 25% in the assay on Septoria tritici—SEPTTR; less than 25% in assay [8].

As for `COc1ccnc(C(=O)Nc2ccc(Oc3ccccc3C)cc2)c1O` [Compound 415], the inhibition at 25 ppm in [1] was less than 80%; in assay [2] it was less than 80%; in assay [3], more than 80%; in assay [4], less than 80%; in the assay on Ustilago maydis (USTIMA), less than 80%; in assay [5], less than 80%. Further, the pest or weed control at 100 ppm in [6] is less than 25%; in [7], 25 to 74%; in the assay on Erysiphe graminis—ERYSGT, 25 to 74%; in the assay on Septoria tritici—SEPTTR, less than 25%; in [8] it was less than 25%.

For the compound `COc1ccnc(C(=O)Nc2ccc(Oc3cccc(C)c3)cc2)c1O` [Compound 416], the inhibition at 25 ppm in assay [1] was more than 80%; in [2] it was less than 80%; in [3], more than 80%; in assay [4], less than 80%; in the assay with Ustilago maydis (USTIMA) it was less than 80%; in [5] it was less than 80%. For the same compound, the pest or weed control at 100 ppm is less than 25% in assay [6]; 25 to 74% in assay [7]; less than 25% in the assay with Erysiphe graminis—ERYSGT; less than 25% with Septoria tritici—SEPTTR; less than 25% in assay [8].

Consider `COc1ccnc(C(=O)Nc2ccc(Oc3ccc(C)cc3)cc2)c1O` [Compound 417], for which the inhibition at 25 ppm in assay [1] is more than 80%; in assay [2], less than 80%; in assay [3] it was more than 80%; in [4], less than 80%; in the assay with Ustilago maydis (USTIMA) it was less than 80%; in [5], less than 80%. The pest or weed control at 100 ppm (in assay [6]; in assay [7]; in the assay on Erysiphe graminis—ERYSGT; in the assay on Septoria tritici—SEPTTR) was less than 25% in each case. Also, the “LEPTNO in vivo 1 Day Protectant” value in [8] is recorded as “+ +”.

As to `COc1ccnc(C(=O)Nc2ccccc2Oc2ccccc2C#N)c1O` [Compound 418], the inhibition at 25 ppm (in assay [1]; in assay [2]; in assay [3]; in assay [4]; in the assay on Ustilago maydis (USTIMA); in assay [5]) was less than 80% throughout. Also, the pest or weed control at 100 ppm in assay [6] is less than 25%; in assay [7], 25 to 74%; with Erysiphe graminis—ERYSGT it was less than 25%; with Septoria tritici—SEPTTR, less than 25%; in assay [8] it was less than 25%.

In the case of `COc1ccnc(C(=O)Nc2ccccc2Oc2ccc(C#N)cc2)c1O` [Compound 419], the inhibition at 25 ppm (in [1]; in assay [2]; in assay [3]; in [4]; in the assay on Ustilago maydis (USTIMA); in assay [5]) was less than 80% each time. Also, the pest or weed control at 100 ppm in assay [6] is 25 to 74%; in assay [7], less than 25%; in the assay on Erysiphe graminis—ERYSGT it was less than 25%; with Septoria tritici—SEPTTR, less than 25%; in [8] it was less than 25%.
